Measured values from patent US6310095A, “Inhibitors of protein isoprenyl transferases” (University of Pittsburgh, priority 1998, dated 2001).
Where a name gives a salt, the structure may show the parent alone.

What follows are compounds tested against T1, protein farnesyltransferase (Rattus norvegicus, UniProt Q02293+Q04631) (assay: in vitro inhibition of protein farnesyltransferase (scintillation proximity assay, biotin-K Ras B fragment)). Conditions: at 1 × 10^-5 M.
T1 construct: Rat brain protein farnesyltransferase activity is measured; from tissue; host or cells: rat brain; purified according to Reiss et al., Cell 62:81-88 (1990), steps one through three
Assay type: biochemical
Procedure, shortened: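 Scintillation proximity read-out of farnesylation, using a biotinylated K Ras B fragment (0.1 mM final) in place of biotin-lamin. Enzyme purified from rat brain; results given as % inhibition.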

Row | Compound | inhibition at 10 µM
1 | CSCC[C@H](NC(=O)c1ccc(NC(=O)[C@@H]2C[C@@H](O)CN2)cc1-c1ccccc1)C(=O)O [Example 952, N-[4-(4-hydroxyprolinylamino)-2-phenylbenzoyl]methionine] | > 50%

Same assay, conditions: at 1 × 10^-6 M

Row | Compound | % inhibition of farnesyltransferase
2 | COc1ccc(CCOCc2ccc(C(=O)N[C@@H](CCSC)C(=O)O)c(-c3ccccc3C)c2)cc1 [Example 937] | 95%
3 | CSCC[C@H](NC(=O)c1ccc(COC2CCN(Cc3ccccc3)C2)cc1-c1ccccc1C)C(=O)O (stereo partly shown) [Example 987] | 93%
4 | CSCC[C@H](NC(=O)c1ccc(CN2CCC(OCc3ccccc3)C2)cc1-c1ccccc1C)C(=O)O (stereo partly shown) [Example 988] | 92%
5 | CSCC[C@H](NC(=O)c1ccc(CN2CCCC(OCc3ccccc3)C2)cc1-c1ccccc1C)C(=O)O (stereo partly shown) [Example 989] | 88%
6 | N-[4-(3-furan-2-yl-2-phenylprop-2-en-1-ylaminomethyl)-2-(2-methylphenyl)benzoyl]methionine lithium salt [Example 537] | 97%

Same assay, conditions: at 1 × 10^-6 M; read-out: % inhibition of farnesyltransferase

Row | Compound | inhibition at 1 µM
7 | CSCC[C@H](NC(=O)c1ccc(CNCc2ccccc2)cc1-c1ccccc1)C(=O)O [Example 936, N-[4-(N-benzylaminomethyl)-2-phenylbenzoyl]methionine hydrochloride salt] | 69%
8 | CSCC[C@H](NC(=O)c1ccc(NC(=O)OCCCl)cc1-c1ccccc1)C(=O)O [Example 979, N-[4-(N-2-chloroethoxycarbonyl)amino-2-phenylbenzoyl]methionine] | 26%
9 | CSCC[C@H](NC(=O)c1ccc(CN(C)C(C)(C)Cc2ccccc2)cc1-c1ccccc1C)C(=O)O [Example 982, N-[4-(N-Methyl-N-(1,1-dimethyl-2-phenylethyl)aminomethyl)-2-(2-methylphenyl)-benzoyl]methionine lithium salt] | 64%

Same assay, conditions: at 1 × 10^-7 M

Row | Compound | % inhibition of farnesyltransferase
10 | CSCC[C@H](NC(=O)c1ccc(COCc2ccc(Cl)cc2)cc1-c1ccccc1C)C(=O)[O-].[Li+] [Example 933] | 91%
11 | COc1ccc(COCc2ccc(C(=O)N[C@@H](CCSC)C(=O)[O-])c(-c3ccccc3C)c2)cc1.[Li+] [Example 935] | 72%
12 | CSCC[C@H](NC(=O)c1ccc(COCc2ccc(C(C)C)cc2)cc1-c1ccccc1C)C(=O)[O-].[Li+] [Example 940] | 92%
13 | CSCC[C@H](NC(=O)c1ccc(COCc2cccc(N(C)C)c2)cc1-c1ccccc1C)C(=O)O [Example 941] | 90%
14 | CCSCC(CC1CCCCC1)N(Cc1ccc(C(=O)N[C@@H](CCSC)C(=O)O)c(-c2ccccc2C)c1)CC(C)C (stereo partly shown) [Example 945, N-[4-N-(3-Cyclohexyl-1-ethylthiopropan-2-yl)-N-isobutylaminomethyl-2-(2-methylphenyl)benzoyl]-methionine] | 80%
15 | CSCC[C@H](NC(=O)c1ccc(CN2CCCC(OCC3CCCCC3)C2)cc1-c1ccccc1C)C(=O)O (stereo partly shown) [Example 990] | 84%
16 | CSCC[C@H](NC(=O)c1ccc(CN2CCC[C@@H]2COCc2ccccc2)cc1-c1ccccc1C)C(=O)O [Example 993] | 90%

Same assay, conditions: at 1 × 10^-7 M; read-out: % inhibition of farnesyltransferase

Row | Compound | inhibition at 0.1 µM
17 | CCSC[C@H](CC1CCCCC1)N(Cc1ccc(C(=O)N[C@@H](CCSC)C(=O)O)c(-c2ccccc2C)c1)C(C)=O [Example 947, N-[4-N-acetyl-N-(3-Cyclohexyl-1-ethylthiopropan-2-yl)aminomethyl-2-(2-methylphenyl)-benzoyl]methionine] | 79%
18 | CCSC[C@H](CC1CCCCC1)N(Cc1ccc(C(=O)N[C@@H](CCSC)C(=O)O)c(-c2ccccc2C)c1)C(=O)OC(C)(C)C [Example 948, N-[4-N-t-Butyloxycarbonyl-N-(3-cyclohexyl-1-ethylthiopropan-2-yl)aminomethyl-2-(2-methylphenyl)benzoyl]methionine] | 75%
19 | CCSC[C@H](CC1CCCCC1)N(Cc1ccc(C(=O)N[C@@H](CCSC)C(=O)O)c(-c2ccccc2C)c1)C(=O)c1ccccc1 [Example 949, N-[4-N-Benzoyl-N-(3-Cyclohexyl-1-ethylthiopropan-2-yl)aminomethyl-2-(2-methylphenyl)-benzoyl]methionine] | 57%
20 | CCCCS(=O)(=O)N(Cc1ccc(C(=O)N[C@@H](CCSC)C(=O)O)c(-c2ccccc2C)c1)[C@H](CSCC)CC1CCCCC1 [Example 950, N-[4-N-Butanesulfoyl-N-(3-Cyclohexyl-1-ethylthiopropan-2-yl)aminomethyl-2-(2-methylphenyl)-benzoyl]methionine] | 71%
21 | CCSC[C@H](CC1CCCCC1)N(Cc1ccc(C(=O)N[C@@H](CCSC)C(=O)O)c(-c2ccccc2C)c1)S(=O)(=O)c1ccccc1 [Example 951] | 71%
22 | CSCC[C@H](NC(=O)c1ccc(NC[C@@H]2C[C@H](S)CN2)cc1-c1ccccc1)C(=O)O [Example 959, N-[4-((2S,4S)-4-thiolpyrrolidin-2-ylmethylamino)-2-phenylbenzoyl]methionine] | > 50%

Same assay, conditions: at 1 × 10^-8 M

Row | Compound | % inhibition of farnesyltransferase
23 | CSCC[C@H](NC(=O)c1ccc(COCc2cccc(Cl)c2)cc1-c1ccccc1C)C(=O)[O-].[Li+] [Example 934] | 71%
24 | CSCC[C@H](NC(=O)c1ccc(COCc2ccccc2C(C)C)cc1-c1ccccc1C)C(=O)[O-].[Li+] [Example 938] | 61%
25 | CSCC[C@H](NC(=O)c1ccc(COCc2cccc(C(C)C)c2)cc1-c1ccccc1C)C(=O)[O-].[Li+] [Example 939] | 72%
26 | CCCCC(CCCC)OCc1ccc(C(=O)N[C@@H](CCSC)C(=O)[O-])c(-c2ccccc2C)c1.[Li+] [Example 942] | 58%
27 | CCCCC(Cc1ccccc1Cl)OCc1ccc(C(=O)N[C@@H](CCSC)C(=O)O)c(-c2ccccc2C)c1 (stereo partly shown) [Example 943] | 79%
28 | CCCCC(OCc1ccc(C(=O)N[C@@H](CCSC)C(=O)O)c(-c2ccccc2C)c1)c1cncs1 (stereo partly shown) [Example 985] | 89%
29 | CSCC[C@H](NC(=O)c1ccc(CN2CCC[C@H]2COc2ccccc2)cc1-c1ccccc1C)C(=O)O [Example 991] | 69%
30 | CSCC[C@H](NC(=O)c1ccc(CN2CCC[C@H]2COCC2CCCCC2)cc1-c1ccccc1C)C(=O)O [Example 992] | 93%
31 | CSCC[C@H](NC(=O)c1ccc(CO[C@H](CSC(C)(C)C)Cc2ccccc2)cc1-c1ccccc1C)C(=O)O [Example 994] | 83%

Same assay, conditions: at 1 × 10^-8 M; read-out: % inhibition of farnesyltransferase

Row | Compound | inhibition at 0.01 µM
32 | CCSC[C@H](CC1CCCCC1)N(C)Cc1ccc(C(=O)N[C@@H](CCSC)C(=O)O)c(-c2ccccc2C)c1 [Example 944, N-[4-N-(3-Cyclohexyl-1-ethylthiopropan-2-yl)-N-methylaminomethyl-2-(2-methylphenyl)benzoyl]-methionine hydrochloride salt] | 88%
33 | CCSC[C@H](CC1CCCCC1)N(C=O)Cc1ccc(C(=O)N[C@@H](CCSC)C(=O)O)c(-c2ccccc2C)c1 [Example 946, N-[4-N-(3-Cyclohexyl-1-ethylthiopropan-2-yl)-N-formylaminomethyl-2-(2-methylphenyl)benzoyl]methionine] | 52%
34 | CSCC[C@H](NC(=O)c1ccc(NC[C@H]2NCC[C@H]2S)cc1-c1ccccc1)C(=O)O [Example 960, N-[4-((2S,4R)-4-thiolpyrrolidin-2-ylmethylamino)-2-phenylbenzoyl]methionine] | > 50%
35 | CSCC[C@H](NC(=O)c1ccc(CN(CCC2CCCCC2)Cc2cncs2)cc1-c1ccccc1C)C(=O)O [Example 986] | 95%
36 | CCSC[C@H](CCc1ccccc1)NCc1ccc(C(=O)N[C@@H](CCSC)C(=O)O)c(-c2ccccc2C)c1 [Example 995] | 92%
37 | CCCCS(=O)(=O)N(Cc1ccc(C(=O)N[C@@H](CCSC)C(=O)O)c(-c2ccccc2C)c1)CC1CCCCC1 [Example 996, N-[4-(N-cyclohexylmethyl-N-butanesulfonylaminomethyl)-2-(2-methylphenyl)benzoyl]methionine] | 80%
